# Test results published in patent US10479784B2, “Substituted pyrazin-2-amines as inhibitors of ATR kinase” (Vertex Pharmaceuticals Incorporated, priority 2008, dated 2019).
# Target: full-length ATR (Homo sapiens (Human), UniProt Q13535)
# Assay: ATR Inhibition Assay (radioactive-phosphate incorporation)
# Assay type: biochemical
# Conditions: read-out: ATR Ki
# Procedure, shortened: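 Ki(app) was derived by non-linear regression of background-corrected initial rates of 33P incorporation into an 800 μM target peptide, read by phosphocellulose filter scintillation counting. Reaction conditions: 5 nM full-length ATR, 10 μM [γ-33P]ATP, pH 7.5 Tris buffer with MgCl2 and DTT, 25 °C, 10-min preincubation, 24 h run.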
# Sequence of full-length ATR (Q13535 whole entry): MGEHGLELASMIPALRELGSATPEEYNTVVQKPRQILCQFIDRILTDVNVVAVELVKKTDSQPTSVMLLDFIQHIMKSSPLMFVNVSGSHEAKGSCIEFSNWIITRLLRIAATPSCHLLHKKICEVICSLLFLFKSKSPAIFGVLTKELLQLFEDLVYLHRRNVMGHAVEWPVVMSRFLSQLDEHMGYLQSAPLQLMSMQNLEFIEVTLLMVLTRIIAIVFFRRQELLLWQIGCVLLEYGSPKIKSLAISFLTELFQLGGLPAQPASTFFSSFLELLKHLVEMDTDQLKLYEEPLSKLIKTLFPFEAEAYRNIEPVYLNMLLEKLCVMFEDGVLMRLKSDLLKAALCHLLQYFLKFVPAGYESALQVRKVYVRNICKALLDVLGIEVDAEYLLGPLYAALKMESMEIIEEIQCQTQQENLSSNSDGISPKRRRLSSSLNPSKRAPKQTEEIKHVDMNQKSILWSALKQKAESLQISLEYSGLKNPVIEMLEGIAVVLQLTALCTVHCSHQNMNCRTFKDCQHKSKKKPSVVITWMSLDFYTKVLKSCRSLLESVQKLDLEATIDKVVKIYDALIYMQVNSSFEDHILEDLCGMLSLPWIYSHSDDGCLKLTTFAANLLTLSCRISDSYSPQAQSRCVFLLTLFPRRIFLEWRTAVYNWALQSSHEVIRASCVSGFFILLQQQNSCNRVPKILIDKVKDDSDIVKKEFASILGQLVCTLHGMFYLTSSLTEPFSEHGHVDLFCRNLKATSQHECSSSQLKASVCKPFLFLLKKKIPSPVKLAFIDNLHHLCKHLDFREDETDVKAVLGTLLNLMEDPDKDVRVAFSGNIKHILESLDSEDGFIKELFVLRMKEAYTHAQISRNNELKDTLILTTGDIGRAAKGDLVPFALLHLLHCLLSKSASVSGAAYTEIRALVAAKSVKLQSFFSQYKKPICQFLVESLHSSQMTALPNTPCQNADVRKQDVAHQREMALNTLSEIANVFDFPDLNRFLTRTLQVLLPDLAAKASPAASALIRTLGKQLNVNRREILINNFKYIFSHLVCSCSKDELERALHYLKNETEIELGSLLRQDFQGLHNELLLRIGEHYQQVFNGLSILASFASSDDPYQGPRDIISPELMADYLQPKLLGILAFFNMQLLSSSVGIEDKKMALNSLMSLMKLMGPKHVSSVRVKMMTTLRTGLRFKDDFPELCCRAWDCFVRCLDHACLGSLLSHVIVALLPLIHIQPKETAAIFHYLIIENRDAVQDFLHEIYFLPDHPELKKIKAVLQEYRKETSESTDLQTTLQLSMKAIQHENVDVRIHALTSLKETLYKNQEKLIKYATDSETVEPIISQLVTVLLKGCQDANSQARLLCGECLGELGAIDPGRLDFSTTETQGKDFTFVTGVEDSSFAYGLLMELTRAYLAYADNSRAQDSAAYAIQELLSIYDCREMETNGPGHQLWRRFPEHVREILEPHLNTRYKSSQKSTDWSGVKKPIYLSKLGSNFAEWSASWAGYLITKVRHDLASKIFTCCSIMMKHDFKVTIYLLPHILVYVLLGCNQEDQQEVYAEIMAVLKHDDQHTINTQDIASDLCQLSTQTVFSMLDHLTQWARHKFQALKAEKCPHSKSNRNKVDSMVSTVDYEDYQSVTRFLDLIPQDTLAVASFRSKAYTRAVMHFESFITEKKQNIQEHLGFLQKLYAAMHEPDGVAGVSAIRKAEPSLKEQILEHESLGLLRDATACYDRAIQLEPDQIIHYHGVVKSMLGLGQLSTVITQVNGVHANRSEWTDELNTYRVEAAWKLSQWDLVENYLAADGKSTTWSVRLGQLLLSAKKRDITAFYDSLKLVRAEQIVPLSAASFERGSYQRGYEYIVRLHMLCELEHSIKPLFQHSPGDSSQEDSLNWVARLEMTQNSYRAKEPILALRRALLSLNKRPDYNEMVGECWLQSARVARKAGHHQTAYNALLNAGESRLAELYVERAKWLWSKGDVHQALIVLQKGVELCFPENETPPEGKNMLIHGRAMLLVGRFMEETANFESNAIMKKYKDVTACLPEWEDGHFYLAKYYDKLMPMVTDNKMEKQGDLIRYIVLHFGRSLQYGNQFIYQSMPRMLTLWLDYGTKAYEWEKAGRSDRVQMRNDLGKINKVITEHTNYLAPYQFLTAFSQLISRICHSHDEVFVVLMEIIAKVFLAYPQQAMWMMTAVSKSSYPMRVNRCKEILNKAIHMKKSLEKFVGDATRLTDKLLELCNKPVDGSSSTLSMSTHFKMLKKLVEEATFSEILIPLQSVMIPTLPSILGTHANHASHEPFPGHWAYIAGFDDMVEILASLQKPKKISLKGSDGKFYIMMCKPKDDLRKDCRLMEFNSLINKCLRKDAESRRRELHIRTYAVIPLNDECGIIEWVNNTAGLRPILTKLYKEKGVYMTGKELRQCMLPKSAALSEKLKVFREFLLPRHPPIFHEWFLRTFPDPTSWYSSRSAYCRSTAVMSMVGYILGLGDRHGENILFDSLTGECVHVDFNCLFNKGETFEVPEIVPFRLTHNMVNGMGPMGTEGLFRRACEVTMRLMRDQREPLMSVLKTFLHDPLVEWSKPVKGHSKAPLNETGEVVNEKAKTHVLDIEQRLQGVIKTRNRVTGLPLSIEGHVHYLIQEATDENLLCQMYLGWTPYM
row,Structure (SMILES),Ki [µM]
1,"CC(C)S(=O)(=O)c1ccc(-c2cnc(N)c(-c3nnc(-c4cccc([C@@H](C)N)c4)o3)n2)cc1 [IA-80, 3-[5-[3-[(1R)-1-aminoethyl]phenyl]-1,3,4-oxadiazol-2-yl]-5-(4-isopropylsulfonylphenyl)pyrazin-2-amine]",≤ 0.01
2,"CC(C)S(=O)(=O)c1ccc(-c2cnc(N)c(-c3nnc(C(=O)NC4CCCCC4N)o3)n2)cc1 (stereo not drawn) [IA-81, N-(2-aminocyclohexyl)-5-[3-amino-6-(4-isopropylsulfonylphenyl)pyrazin-2-yl]-1,3,4-oxadiazole-2-carboxamide]",0.1 to 5
3,"CC(C)S(=O)(=O)c1ccc(-c2cnc(N)c(-c3nnc(NC(=O)CN)o3)n2)cc1 [IA-82, 2-amino-N-[5-[3-amino-6-(4-isopropylsulfonylphenyl)pyrazin-2-yl]-1,3,4-oxadiazol-2-yl]acetamide]",0.1 to 5
4,"CCNCc1ccc(-c2nnc(-c3nc(-c4ccc(S(=O)(=O)C(C)C)cc4)cnc3N)o2)s1 [IA-83, 3-[5-[5-(ethylaminomethyl)-2-thienyl]-1,3,4-oxadiazol-2-yl]-5-(4-isopropylsulfonylphenyl)pyrazin-2-amine]",≤ 0.01
5,"CC(C)S(=O)(=O)c1ccc(-c2cnc(N)c(-c3nnc(-c4cccc(C5CCCN5)c4)o3)n2)cc1 (stereo not drawn) [IA-84, 5-(4-isopropylsulfonylphenyl)-3-[5-(3-pyrrolidin-2-ylphenyl)-1,3,4-oxadiazol-2-yl]pyrazin-2-amine]",≤ 0.01
6,"CN(C)C(=O)c1ccc(-c2cnc(N)c(-c3nnc(-c4cccc(O)c4)o3)n2)cc1 [IA-85, 4-[5-amino-6-[5-(3-hydroxyphenyl)-1,3,4-oxadiazol-2-yl]pyrazin-2-yl]-N,N-dimethyl-benzamide]",0.01 to 0.1
7,"COc1cnccc1-c1cnc(N)c(-c2nnc(-c3ccccc3)o2)n1 [IA-86, 5-(3-methoxy-4-pyridyl)-3-(5-phenyl-1,3,4-oxadiazol-2-yl)pyrazin-2-amine]",0.1 to 5
8,"CN(C)C(=O)c1ccc(-c2cnc(N)c(-c3nnc(-c4ccc(O)cc4)o3)n2)cc1 [IA-87, 4-[5-amino-6-[5-(4-hydroxyphenyl)-1,3,4-oxadiazol-2-yl]pyrazin-2-yl]-N,N-dimethyl-benzamide]",≤ 0.01
9,"CNCc1ccc(-c2nnc(-c3nc(-c4ccc(S(=O)(=O)C(C)CCO)cc4)cnc3N)o2)cc1 (stereo not drawn) [IA-88, 3-[4-[5-amino-6-[5-[4-(methylaminomethyl)phenyl]-1,3,4-oxadiazol-2-yl]pyrazin-2-yl]phenyl]sulfonylbutan-1-ol]",≤ 0.01
10,"CC(C)[S+]([O-])c1ccc(-c2cnc(N)c(-c3nnc(-c4ccccc4)o3)n2)cc1 (stereo not drawn) [IA-90, 5-(4-isopropylsulfinylphenyl)-3-(5-phenyl-1,3,4-oxadiazol-2-yl)pyrazin-2-amine]",≤ 0.01
11,"CC(C)S(=O)(=O)c1ccc(-c2cnc(N)c(-c3nnc(CCCN)o3)n2)cc1 [IA-91, 3-[5-(3-aminopropyl)-1,3,4-oxadiazol-2-yl]-5-(4-isopropylsulfonylphenyl)pyrazin-2-amine]",0.1 to 5
12,"CC(C)S(=O)(=O)c1ccc(-c2cnc(N)c(-c3nnc(CCCCN)o3)n2)cc1 [IA-92, 3-[5-(4-aminobutyl)-1,3,4-oxadiazol-2-yl]-5-(4-isopropylsulfonylphenyl) pyrazin-2-amine]",0.1 to 5
13,"Nc1ncc(-c2cccc3ccccc23)nc1-c1nnc(-c2ccccc2)o1 [IA-93, 5-(1-naphthyl)-3-(5-phenyl-1,3,4-oxadiazol-2-yl)pyrazin-2-amine]",0.1 to 5
14,"CN(C)c1ccccc1-c1cnc(N)c(-c2nnc(-c3ccccc3)o2)n1 [IA-94, 5-(2-(dimethylamino)phenyl)-3-(5-phenyl-1,3,4-oxadiazol-2-yl)pyrazin-2-amine]",0.1 to 5
15,"CC(C)S(=O)(=O)c1ccc(-c2cnc(N)c(-c3nnc(C4=CCN(C(=O)OC(C)(C)C)CC4)o3)n2)cc1 [IA-95, tert-butyl 4-[5-[3-amino-6-(4-isopropylsulfonylphenyl)pyrazin-2-yl]-1,3,4-oxadiazol-2-yl]-3,6-dihydro-2H-pyridine-1-carboxylate]",0.1 to 5
